According to ChEMBL document CHEMBL4351003, “Selective Toll-like receptor 7 agonists with novel chromeno[3,4-d]imidazol-4(1H)-one and 2-(trifluoromethyl)quinoline/ quinazoline-4-amine scaffolds” (Eur J Med Chem, 2019):
Activity calls are given as the source filed them. The rule behind the calls is not given here.

What was measured:
[1] = tested on: PBMC; test: Induction of IL-12p70 production in human PBMC at 10 ug/ml incubated for 24 hrs by flow cytometry analysis; assay type: functional, cell-based
[2] = Cytotoxicity against human HEK293 cells transfected with human TLR7/8 assessed as reduction in cell viability incubated for 24 hrs by MTS assay; assay type: cell-based; conditions: read-out: MNCC
[3] = tested on: PBMC; test: Induction of TNFalpha production in human PBMC at 10 ug/ml incubated for 24 hrs by flow cytometry analysis; assay type: functional, cell-based
[4] = tested on: PBMC; test: Induction of IL-6 production in human PBMC at 10 ug/ml incubated for 24 hrs by flow cytometry analysis; assay type: functional, cell-based
[5] = biological target: T1, Toll-like receptor 7 (Homo sapiens, UniProt Q9NYK1); test: Agonist activity at human TLR7 in HEK293 cells cotransfected with SEAP reporter gene assessed as activity of SEAP incubated for 24 hrs by quanti-blue staining based SEAP reporter gene assay; assay type: cell-based
T1 sequence (Q9NYK1 whole entry): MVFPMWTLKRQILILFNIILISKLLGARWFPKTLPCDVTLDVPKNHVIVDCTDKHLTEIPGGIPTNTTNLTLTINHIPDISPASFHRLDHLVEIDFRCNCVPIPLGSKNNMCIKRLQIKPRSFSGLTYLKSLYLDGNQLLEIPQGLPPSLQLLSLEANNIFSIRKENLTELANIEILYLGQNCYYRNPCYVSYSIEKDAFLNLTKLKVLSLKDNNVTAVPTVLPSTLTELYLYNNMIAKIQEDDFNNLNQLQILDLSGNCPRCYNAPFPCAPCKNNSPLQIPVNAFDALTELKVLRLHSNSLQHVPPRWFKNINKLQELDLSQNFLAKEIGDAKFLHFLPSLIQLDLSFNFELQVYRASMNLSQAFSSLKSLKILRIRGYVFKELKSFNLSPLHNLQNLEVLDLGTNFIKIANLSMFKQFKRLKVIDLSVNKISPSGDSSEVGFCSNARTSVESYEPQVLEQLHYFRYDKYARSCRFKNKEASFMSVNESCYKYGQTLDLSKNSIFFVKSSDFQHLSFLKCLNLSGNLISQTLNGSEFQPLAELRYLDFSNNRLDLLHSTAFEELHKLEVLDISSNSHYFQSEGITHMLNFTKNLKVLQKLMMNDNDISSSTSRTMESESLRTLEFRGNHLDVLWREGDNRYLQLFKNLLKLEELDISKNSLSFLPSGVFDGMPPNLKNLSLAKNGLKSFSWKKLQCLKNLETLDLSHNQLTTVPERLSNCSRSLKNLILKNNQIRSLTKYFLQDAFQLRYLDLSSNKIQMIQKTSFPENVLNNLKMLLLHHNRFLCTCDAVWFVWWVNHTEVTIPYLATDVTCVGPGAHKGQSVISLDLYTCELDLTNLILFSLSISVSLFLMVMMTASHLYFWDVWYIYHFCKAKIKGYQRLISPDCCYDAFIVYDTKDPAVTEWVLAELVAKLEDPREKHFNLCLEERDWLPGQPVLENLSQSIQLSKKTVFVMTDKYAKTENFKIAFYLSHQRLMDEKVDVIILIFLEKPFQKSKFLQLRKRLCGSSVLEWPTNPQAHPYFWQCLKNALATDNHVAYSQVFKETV

[6] = tested on: PBMC; test: Induction of IL-8 production in human PBMC at 10 ug/ml incubated for 24 hrs by flow cytometry analysis; assay type: functional, cell-based
[7] = biological target: T2, Toll-like receptor 7 (Homo sapiens) (UniProt Q9NYK1); test: Antagonist activity at human TLR7 in HEK293 cells cotransfected with SEAP reporter gene assessed as activity of SEAP preincubated for 2 hrs followed by imiquimod addition further incubated for 24 hrs by quanti-blue staining based SEAP reporter gene assay; assay type: cell-based
T2 sequence (whole entry): T1 sequence (Q9NYK1 whole entry)

[8] = biological target: T3, Toll-like receptor 8 (Homo sapiens) (UniProt Q9NR97); test: Agonist activity at human TLR8 in HEK293 cells cotransfected with SEAP reporter gene assessed as activity of SEAP incubated for 24 hrs by quanti-blue staining based SEAP reporter gene assay; assay type: cell-based
T3 sequence (whole entry): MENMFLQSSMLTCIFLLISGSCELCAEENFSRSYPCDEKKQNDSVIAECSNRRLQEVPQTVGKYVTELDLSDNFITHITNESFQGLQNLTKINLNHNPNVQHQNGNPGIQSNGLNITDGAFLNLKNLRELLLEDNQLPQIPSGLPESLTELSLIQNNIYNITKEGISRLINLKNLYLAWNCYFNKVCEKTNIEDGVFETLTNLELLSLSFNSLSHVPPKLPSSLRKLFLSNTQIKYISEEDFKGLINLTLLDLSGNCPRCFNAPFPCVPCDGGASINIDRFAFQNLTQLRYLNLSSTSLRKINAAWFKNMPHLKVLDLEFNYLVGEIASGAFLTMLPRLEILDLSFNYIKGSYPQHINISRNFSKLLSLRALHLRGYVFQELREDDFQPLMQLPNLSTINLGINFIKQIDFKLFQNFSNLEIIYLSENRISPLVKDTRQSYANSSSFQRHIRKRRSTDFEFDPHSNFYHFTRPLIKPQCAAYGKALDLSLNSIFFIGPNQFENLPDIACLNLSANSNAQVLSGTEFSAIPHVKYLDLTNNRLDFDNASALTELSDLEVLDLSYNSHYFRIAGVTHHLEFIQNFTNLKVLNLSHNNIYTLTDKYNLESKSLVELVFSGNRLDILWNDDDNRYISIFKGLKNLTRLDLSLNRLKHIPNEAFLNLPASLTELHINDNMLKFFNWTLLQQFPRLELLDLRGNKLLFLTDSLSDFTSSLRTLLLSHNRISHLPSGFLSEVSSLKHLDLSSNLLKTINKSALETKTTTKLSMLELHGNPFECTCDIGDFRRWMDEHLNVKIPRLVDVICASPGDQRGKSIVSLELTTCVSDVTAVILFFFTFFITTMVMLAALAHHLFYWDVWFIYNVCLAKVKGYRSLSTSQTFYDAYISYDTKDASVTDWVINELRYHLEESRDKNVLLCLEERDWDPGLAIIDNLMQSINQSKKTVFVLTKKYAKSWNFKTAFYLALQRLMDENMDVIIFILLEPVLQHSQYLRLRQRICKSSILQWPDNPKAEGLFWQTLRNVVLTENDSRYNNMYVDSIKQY

Row | SMILES | EC50 ([5]; read-out: EC50) | Activity [7] | Activity [8] | EC50 ([5]; hek293) | Activity [1] | MNTC at 24 h [2] | Activity [3] | Activity [4] | Activity [6]
1 | FC(F)(F)c1nc(NC2CCCCC2)c2ccccc2n1 | 8.3 µM | inactive | inactive |  | inactive | 31.3 µM | inactive | Active | Active
2 | FC(F)(F)c1nc(N2CCCC2)c2ccccc2n1 | 15.4 µM | inactive | inactive |  |  | 31.3 µM |  |  | 
3 | COc1ccc2c(c1)oc(=O)c1ncn(CC(C)C)c12 | 279 µM | inactive | inactive |  |  | ≥ 250 µM |  |  | 
4 | CC1CCCN(c2nc(C(F)(F)F)nc3ccccc23)C1 (stereo not given) | 4 µM | inactive | inactive |  |  | 62.5 µM |  |  | 
5 | CCCCn1cnc2c(=O)oc3ccccc3c21 | 107 µM | inactive | inactive |  |  | ≥ 250 µM |  |  | 
6 | CN1CCN(c2nc(C(F)(F)F)nc3ccccc23)CC1 |  |  |  | Not Active |  | 7.8 to 250 µM |  |  | 
7 | CC(C)Cn1cnc2c(N)nc3ccccc3c21 [IMIQUIMOD] | 6.2 to 8.2 µM |  |  |  | inactive |  | inactive |  | Active
8 | CCN(CC)c1ccc2c(c1)oc(=O)c1ncn(CC(C)C)c12 | 29.9 µM | inactive | inactive |  |  | 62.5 µM |  |  | 
9 | CCCn1cnc2c(=O)oc3ccccc3c21 |  |  |  | Not Active |  | ≥ 250 µM |  |  | 
10 | FC(F)(F)c1nc(N2CCOCC2)c2ccccc2n1 |  |  |  | Not Active |  | 125 µM |  |  | 
11 | COCCCn1cnc2c(=O)oc3ccccc3c21 |  |  |  | Not Active |  | ≥ 250 µM |  |  | 
12 | CC1CCCN(c2cc(C(F)(F)F)nc3ccccc23)C1 (stereo not given) |  |  |  | Not Active |  | 31.3 µM |  |  | 
13 | Cc1ccc2oc(=O)c3ncn(CC(C)C)c3c2c1 | 535 µM | inactive | inactive |  |  | ≥ 250 µM |  |  | 
14 | CC(C)Cn1cnc2c(=O)oc3cc(O)ccc3c21 | 114 µM | inactive | inactive |  |  | ≥ 250 µM |  |  | 
15 | C=CCn1cnc2c(=O)oc3ccccc3c21 |  |  |  | Not Active |  | ≥ 250 µM |  |  | 
16 | CC(C)n1cnc2c(=O)oc3ccccc3c21 |  |  |  | Not Active |  | ≥ 250 µM |  |  | 
17 | COCCn1cnc2c(=O)oc3ccccc3c21 |  |  |  | Not Active |  | ≥ 250 µM |  |  | 
18 | CC(C)Cn1cnc2c(=O)oc3ccccc3c21 |  | Active | inactive |  |  |  |  |  | 
19 | CC(C)Cn1cnc2c(=O)oc3ccc([N+](=O)[O-])cc3c21 |  |  |  | Not Active |  | 62.5 µM |  |  | 
20 | COc1ccc2oc(=O)c3ncn(CC(C)C)c3c2c1 |  |  |  | Not Active |  | 62.5 µM |  |  | 
21 | CC(C)Cn1cnc2c(=O)oc3ccc(F)cc3c21 |  |  |  | Not Active |  | ≥ 250 µM |  |  | 
22 | CC(C)Cn1cnc2c(=O)oc3ccc(O)cc3c21 | 1.8 µM | inactive | inactive |  | inactive | 62.5 µM | inactive | inactive | inactive
23 | FC(F)(F)c1nc(NC2CCN(C3CC3)CC2)c2ccccc2n1 | 66.6 µM | inactive | inactive |  |  | 125 µM |  |  | 
24 | CC(C)CNc1cc(C(F)(F)F)nc2ccccc12 | 6.3 µM | inactive | inactive |  | inactive | 62.5 µM | inactive | Active | Active
25 | CCn1cnc2c(=O)oc3ccc(F)cc3c21 |  |  |  | Not Active |  | ≥ 250 µM |  |  | 

The next lines start with results.

Row | EC50 ([5]; read-out: EC50) | Activity [7] | Activity [8] | EC50 ([5]; hek293) | SMILES | Activity [1] | MNTC at 24 h [2] | Activity [3] | Activity [4] | Activity [6]
26 |  |  |  | Not Active | FC(F)(F)c1nc(Cl)c2ccccc2n1 |  | 31.3 µM |  |  | 
27 |  |  |  | Not Active | Nc1nc(C(F)(F)F)nc2ccccc12 |  | 62.5 µM |  |  | 
28 | 44 µM | inactive | inactive |  | CCCNc1nc(C(F)(F)F)nc2ccccc12 |  | 62.5 µM |  |  | 
29 |  |  |  | Not Active | O=C(O)CNc1nc(C(F)(F)F)nc2ccccc12 |  | 31.3 µM |  |  | 
30 |  | inactive |  |  | OCCNc1nc(C(F)(F)F)nc2ccccc12 |  | 125 µM |  |  | 
31 | 4.4 µM | inactive | inactive |  | CC(C)CNc1nc(C(F)(F)F)nc2ccccc12 |  | 7.8 to 250 µM |  |  | 
32 | 57.4 µM | inactive | inactive |  | CC(C)Nc1nc(C(F)(F)F)nc2ccccc12 |  | 62.5 µM |  |  | 
33 | 10.9 µM | inactive | inactive |  | FC(F)(F)c1nc(NC2CCCC2)c2ccccc2n1 |  | 62.5 µM |  |  | 
34 |  |  |  | Not Active | FC(F)(F)c1nc(NCCc2cnc[nH]2)c2ccccc2n1 |  | 31.3 µM |  |  | 
35 |  |  |  | Not Active | FC(F)(F)c1nc(NCCN2CCCCC2)c2ccccc2n1 |  | 62.5 µM |  |  | 
36 | 15 µM | inactive | inactive |  | FC(F)(F)c1nc(NCC2CC2)c2ccccc2n1 |  | 31.3 µM |  |  | 
37 |  |  |  | Not Active | Oc1nc(C(F)(F)F)nc2ccccc12 |  | 62.5 µM |  |  | 
38 |  |  |  | Not Active | Nc1ccc(CNc2nc(C(F)(F)F)nc3ccccc23)cc1 |  | 15.6 µM |  |  | 
39 | 16.8 µM | inactive | inactive |  | FC(F)(F)c1nc(NC2CC2)c2ccccc2n1 | inactive | 125 µM | inactive | Active | Active
